{"source": "patent US20090158447A1", "about": "“TLR ligand and IL-1 Response-Injured Animal Model” (priority 2004, published 2009)", "format_in_all_cases": "cell-based, mouse", "key": {"RAW 264.7 cells": {"tested_on": "RAW 264.7 cells", "experiment": "Luciferase reporter assay of IL-6 and ELAM1 promoters", "settings": "RAW 264.7 cells transfected with luciferase reporter plasmids, FIG. 4a", "from_the_text": "It is a figure showing the result of an in vitro analysis of IκB-ζ on the IL-6 promoter. a. RAW 264.7 cells were transiently transfected with luciferase reporter constructs of either mouse IL-6 promoter or ELAM1 promoter together with either a control or the IκB-ζ expression plasmid. Luciferase activities were expressed as fold-increase over the background shown by lysates prepared from untransfected cells. Data are representative of three separate experiments. In all three experiments, cells were stimulated with the indicated concentrations of LPS. b. A certain amount of IκB-ζ expression vector was transiently introduced into untreated RAW 264.7 cells with the indicated amount of IL-6 reporter plasmid. Data are representative of three independent experiments. c. […] Precipitated DNA for the IL-6 κB site (left), 3′ region of IL-6 gene (center), or ELAM1 promoter (right) was measured by PCR (ChIP). […]\nReporter plasmids were transiently co-transfected into RAW 264.7 and P19 cells with either control or the IκB-ζ expression vectors by using SUPERFECT transfection reagent (QIAGEN). Luciferase activities of total cell lysates were measured using dual-luciferase reporter assay system (Promega, Maiden, Wis.) according to the method described previously (28, 29) (Nat Immunol. 3, 392-398 (2002); Nat Immunol. 2, 835-841 (2001))."}, "peritoneal macrophages": {"tested_on": "peritoneal macrophages", "experiment": "Time-course Northern blot analysis of IκB-ζ induction following LPS stimulation", "settings": "wild-type peritoneal macrophages, 10 ng ml^−1 LPS, FIG. 3h", "method": "It is a figure showing immune responses in IκB-ζ-deficient cells, and kinetics of IκB-ζ induction. a, b, c, d. Peritoneal macrophages from wild-type and IκB-ζ-deficient mice were cultured with the indicated concentrations of PGN, R-848, CpG DNA in the coexistence of 10 ng ml^−1 LPS, 100 ng ml^−1 BLP, and 30 ng ml^−1 MALP-2, and in the presence of 30 ng ml^−1 IFN-γ for 24 h. Concentrations of IL-6, TNF-α, and NO in the culture supernatants were measured. The indicated values are means±SD of triplicates. “N.D.” means not detected. e. MEFs from wild-type and IκB-ζ-deficient mice were stimulated with 10 ng ml^−1 IL-1 and 10 ng ml^−1 TNF-α. Supernatents were collected for IL-6 analysis by ELISA 24 h later. Indicated values are means±SD of triplicates. “N.D.” means not detected. f. Peritoneal macrophages were stimulated with 10 ng ml^−1 LPS for the indicated periods. Total RNA (5 μg) was extracted and subjected to Northern blot analysis for investigating the expression of IL-6, TNF-α, and β-actin. g. […] Concentrations of IL-6 in the culture supernatants, with or without 10 ng ml^−1 IL-β, were measured by ELISA. […] Two-independent experiments with independently derived wild-type cells were quantitated by Phospholmager and mRNA amount was graphed for the indicated genes in arbitrary units (left for IκB-ζ and IL-6, right for TNF-α) relative to β-actin. […]"}, "[1]": {"tested_on": "peritoneal macrophages or lung-derived normal cells", "experiment": "Northern blot analysis of IκB-ζ, Bcl-3 and IκB-α expression on TLR/IL-1R stimulation", "settings": "stimulation for 2 hours, FIG. 1a", "method": "Peritoneal macrophages and lung primary cells were stimulated with 100 ng ml^−1 BLP, 10 μg ml^−1 PGN, 30 ng ml^−1 MALP-2, 100 nM R-848, 3 μM CpG DNA, 10 ng ml^−1 IL-1β, 10 μg ml^−1 LPS, 100 ng ml^−1 flagellin, and 10 ng ml^−1 TNF-α for 2 hours. Total RNA (10 μg) was extracted and subjected to Northern blot analysis for investigating the expression of IκB-ζ, Bcl-3, IκB-α, and β-actin. b. MEFs from wild-type and MyD88-deficient mice were stimulated with 10 ng ml^−1 IL-1β and 10 μg ml^−1 LPS for the indicated periods. Total RNA (10 μg) was extracted and subjected to Northern blot analysis for investigating the expression of IκB-ζ, Cox-2, IP-10, and β-actin.\nWhether IκB-ζ would be induced in response to other TLR ligands was examined based on the fact that stimulation with IL-1 or LPS induces IκB-ζ in macrophage cell lines and fibroblasts, and that IL-1R and the receptor for LPS, TLR4, share the intracellular signaling pathways. […] On the other hand, other IκB family members, IκB-α and Bcl-3, were induced in response to TNF-αas well as a TLR ligand and IL-1. Taken together, unlike IκB-α and Bcl-3, the IκB-ζ induction is specifically detected on the TLR/IL-1R stimulation."}}}
{"substance": "lipopolysaccharide [LPS]", "values": [{"measurement": "activation of both IL-6 and ELAM1 promoters", "setting": "RAW 264.7 cells", "value": "dose-dependent manner"}, {"measurement": "time after stimulation at which IκB-ζ induction reached its maximum level", "setting": "peritoneal macrophages", "value": 120, "unit": "min"}, {"measurement": "time after stimulation at which IκB-ζ induction was observed", "setting": "peritoneal macrophages", "value": 30, "unit": "min"}, {"measurement": "IκB-ζ mRNA induction", "setting": "[1]", "value": "strongly induced"}]}
